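These data come from cells grown in 96-well plates and exposed to compound for 48 hours at five concentrations. GI50 marks 50% less growth.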 The source made the active and inactive calls. No stated cut-off is given here; in the data, active = GI50 up to about 1.1 µM and inactive = higher.
What was measured:
Assay in all cases: growth of human tumour cells (NCI), 48 h
NCI-H23 = tested on: NCI-H23
RPMI-8226 = tested on: RPMI-8226
OVCAR-8 = tested on: OVCAR-8
OVCAR-4 = tested on: OVCAR-4
SK-MEL-28 = tested on: SK-MEL-28
EKVX = tested on: EKVX
UACC-62 = tested on: UACC-62
COLO 205 = tested on: COLO 205
Malme-3M = tested on: Malme-3M
OVCAR-5 = tested on: OVCAR-5
IGROV-1 = tested on: IGROV-1
RXF 393 = tested on: RXF 393
SNB-75 = tested on: SNB-75
ACHN = tested on: ACHN
HCC 2998 = tested on: HCC 2998
SF-268 = tested on: SF-268
SF-295 = tested on: SF-295
SK-MEL-2 = tested on: SK-MEL-2
MCF7 = tested on: MCF7
NCI/ADR-RES = tested on: NCI/ADR-RES

Row | SMILES | GI50 (NCI-H23) | GI50 (RPMI-8226) | GI50 (OVCAR-8) | GI50 (OVCAR-4) | GI50 (SK-MEL-28) | GI50 (EKVX) | GI50 (UACC-62) | GI50 (COLO 205) | GI50 (Malme-3M) | GI50 (OVCAR-5) | GI50 (IGROV-1) | GI50 (RXF 393) | GI50 (SNB-75) | GI50 (ACHN) | GI50 (HCC 2998) | GI50 (SF-268) | GI50 (SF-295) | GI50 (SK-MEL-2) | GI50 (MCF7) | GI50 (NCI/ADR-RES)
1 | C=CCNC1=NC(=O)C(CC(=O)Nc2cccc(Cl)c2)S1 (stereo not drawn) | > 100 µM (inactive) | > 100 µM (inactive) | > 100 µM (inactive) | > 100 µM (inactive) | > 100 µM (inactive) | > 100 µM (inactive) | > 100 µM (inactive) | > 100 µM (inactive) | > 100 µM (inactive) | > 100 µM (inactive) | > 100 µM (inactive) | > 100 µM (inactive) | > 100 µM (inactive) | > 100 µM (inactive) | > 100 µM (inactive) | > 100 µM (inactive) | > 100 µM (inactive) | > 100 µM (inactive) |  | 
2 | [O-][n+]1ccccc1S [PYRITHIONE ZINC] | 1.21 µM (inactive) | 0.1 µM (active) | 3.01 µM (inactive) | 0.542 µM (active) | 1.97 µM (inactive) | 2.98 µM (inactive) | 0.604 µM (active) | 0.625 µM (active) | 2.45 µM (inactive) | 5.55 µM (inactive) | 1.14 µM (inactive) | 0.135 µM (active) | 3.03 µM (inactive) | 3.21 µM (inactive) | 0.452 µM (active) | 1.03 µM (active) | 4.46 µM (inactive) | 1.49 µM (inactive) |  | 
3 | COc1cc(/C=C2\CCC(C)C3=C2N=c2s/c(=C/c4ccc(Cl)cc4)c(=O)n2C3c2cc(OC)c(OC)c(OC)c2)cc(OC)c1OC (stereo not drawn) |  | > 100 µM (inactive) | > 100 µM (inactive) | > 100 µM (inactive) | > 100 µM (inactive) | > 100 µM (inactive) | > 100 µM (inactive) |  |  | > 100 µM (inactive) | 20.5 µM (inactive) | > 100 µM (inactive) | 0.277 µM (active) | > 100 µM (inactive) |  | > 100 µM (inactive) |  | > 100 µM (inactive) | > 100 µM (inactive) | 
4 | Cc1ccc(S(=O)(=O)NC(=O)Nc2nc(Cl)cc(Cl)n2)cc1 | > 100 µM (inactive) | > 100 µM (inactive) | > 100 µM (inactive) | > 100 µM (inactive) | > 100 µM (inactive) | > 100 µM (inactive) | > 100 µM (inactive) | > 100 µM (inactive) | > 100 µM (inactive) | > 100 µM (inactive) | > 100 µM (inactive) | > 100 µM (inactive) | > 100 µM (inactive) | > 100 µM (inactive) | 28.3 µM (inactive) | > 100 µM (inactive) | > 100 µM (inactive) | > 100 µM (inactive) |  | 
5 | C=CC(Br)(CBr)CCC(Cl)C(C)C (stereo not drawn) | 2.74 µM (inactive) | 0.35 µM (active) |  | 1.49 µM (inactive) | 1.58 µM (inactive) | 9.66 µM (inactive) | 1.5 µM (inactive) | 3.38 µM (inactive) | 1.58 µM (inactive) | 2.44 µM (inactive) | 2.5 µM (inactive) | 1.6 µM (inactive) | 1.49 µM (inactive) | 2.53 µM (inactive) | < 0.01 µM (active) | 1.56 µM (inactive) | 1.84 µM (inactive) | 1.92 µM (inactive) | 1.39 µM (inactive) | 
6 | CCCCc1ccc(-n2c3nc(=O)n(C)c(=O)c-3nc3ccccc32)cc1 | 2.37 µM (inactive) | 13.7 µM (inactive) | 7.57 µM (inactive) | 8 µM (inactive) |  | 4.05 µM (inactive) | 1.77 µM (inactive) | 3.09 µM (inactive) | 7.6 µM (inactive) | 18.1 µM (inactive) | 13.6 µM (inactive) | 18.4 µM (inactive) | 15.3 µM (inactive) | 10.7 µM (inactive) | 4.36 µM (inactive) | 10.1 µM (inactive) | 11.1 µM (inactive) | 10.9 µM (inactive) |  | 
7 | CCCCN(CCCC)C(=O)C(=O)C(C#N)c1ccc(C)cc1 (stereo not drawn) | > 100 µM (inactive) | > 100 µM (inactive) | > 100 µM (inactive) | > 100 µM (inactive) | > 100 µM (inactive) | > 100 µM (inactive) | > 100 µM (inactive) |  | > 100 µM (inactive) | > 100 µM (inactive) | > 100 µM (inactive) | > 100 µM (inactive) | > 100 µM (inactive) | > 100 µM (inactive) | > 100 µM (inactive) | > 100 µM (inactive) | > 100 µM (inactive) | > 100 µM (inactive) |  | 
8 | CCCc1c(C(=O)OCC)[nH]c(-c2ccc(-c3[nH]c(C(=O)OCC)c(CCC)c3C(=O)OCC)o2)c1C(=O)OCC | > 100 µM (inactive) | > 100 µM (inactive) | > 100 µM (inactive) | > 100 µM (inactive) | > 100 µM (inactive) | > 100 µM (inactive) | > 100 µM (inactive) | > 100 µM (inactive) | > 100 µM (inactive) | > 100 µM (inactive) | > 100 µM (inactive) | > 100 µM (inactive) | > 100 µM (inactive) | > 100 µM (inactive) | > 100 µM (inactive) | > 100 µM (inactive) | > 100 µM (inactive) | > 100 µM (inactive) |  | 
9 | Cc1ccc(S(=O)(=O)N/N=C2/C3CCC(C3)C2c2ccccc2)cc1 (stereo not drawn) | > 100 µM (inactive) | > 100 µM (inactive) | > 100 µM (inactive) | > 100 µM (inactive) | > 100 µM (inactive) | > 100 µM (inactive) | > 100 µM (inactive) | > 100 µM (inactive) | > 100 µM (inactive) | > 100 µM (inactive) | > 100 µM (inactive) |  | > 100 µM (inactive) | > 100 µM (inactive) |  | > 100 µM (inactive) | > 100 µM (inactive) | > 100 µM (inactive) | > 100 µM (inactive) | > 100 µM (inactive)
10 | Cn1cc(C(=O)c2nccc3c2cnc2ccccc23)ccc1=O | > 100 µM (inactive) | > 100 µM (inactive) | > 100 µM (inactive) | > 100 µM (inactive) | > 100 µM (inactive) | > 100 µM (inactive) | > 100 µM (inactive) | 69.5 µM (inactive) | > 100 µM (inactive) | > 100 µM (inactive) |  | < 0.01 µM (active) | 29.4 µM (inactive) | 12.2 µM (inactive) | > 100 µM (inactive) | > 100 µM (inactive) | > 100 µM (inactive) | > 100 µM (inactive) |  | > 100 µM (inactive)
11 | CC(=O)OC(C)(C)C[N+](=O)[O-] | > 100 µM (inactive) | > 100 µM (inactive) | > 100 µM (inactive) | 20 µM (inactive) | > 100 µM (inactive) | > 100 µM (inactive) |  | > 100 µM (inactive) | > 100 µM (inactive) | > 100 µM (inactive) | > 100 µM (inactive) | > 100 µM (inactive) | > 100 µM (inactive) | > 100 µM (inactive) | > 100 µM (inactive) | > 100 µM (inactive) | > 100 µM (inactive) | > 100 µM (inactive) |  | 
12 | COC(=O)C1=C2CCC(=O)[C@@]2(C)C(OC(C)=O)C=CC1 (stereo partly drawn) | 76.9 µM (inactive) | 34.6 µM (inactive) | 43 µM (inactive) | > 100 µM (inactive) | > 100 µM (inactive) | > 100 µM (inactive) | 76.6 µM (inactive) |  | > 100 µM (inactive) | > 100 µM (inactive) | > 100 µM (inactive) | > 100 µM (inactive) | 56.8 µM (inactive) | > 100 µM (inactive) | > 100 µM (inactive) |  | 37.1 µM (inactive) | 71.6 µM (inactive) |  | 
13 | Cn1nc(C(=O)N2CC(CCl)c3c2cc(N)c2ccccc32)cc1NC(=O)Nc1cc(C(=O)N2CC(CCl)c3c2cc(N)c2ccccc32)nn1C (stereo not drawn) | 0.0225 µM (active) | 3.3 µM (inactive) | 0.249 µM (active) | 0.449 µM (active) | 0.108 µM (active) | 29 µM (inactive) | 0.107 µM (active) | 0.163 µM (active) | 0.21 µM (active) | 0.301 µM (active) |  | 0.0447 µM (active) | 0.0185 µM (active) | 0.508 µM (active) | 1.21 µM (inactive) | 0.0275 µM (active) | 1.55 µM (inactive) | 0.13 µM (active) |  | > 100 µM (inactive)
14 | N#CNC1=NC(CCCC(=O)Nc2cccc([N+](=O)[O-])c2)=C(c2nc3ccccc3[nH]2)C(N)N1 (stereo not drawn) | > 100 µM (inactive) | > 100 µM (inactive) | > 100 µM (inactive) | > 100 µM (inactive) | > 100 µM (inactive) | > 100 µM (inactive) | > 100 µM (inactive) | > 100 µM (inactive) | > 100 µM (inactive) | > 100 µM (inactive) | > 100 µM (inactive) | > 100 µM (inactive) | > 100 µM (inactive) | > 100 µM (inactive) | > 100 µM (inactive) | > 100 µM (inactive) | > 100 µM (inactive) | > 100 µM (inactive) |  | 
15 | CCC1=CCN(c2cc(C)ccn2)OC1c1ccc(OC)cc1 (stereo not drawn) | 34 µM (inactive) | 22.6 µM (inactive) | 32.8 µM (inactive) | 34.8 µM (inactive) | 24.1 µM (inactive) | 40.6 µM (inactive) | 29.4 µM (inactive) | 16.3 µM (inactive) | 27 µM (inactive) | 26.5 µM (inactive) | 55.7 µM (inactive) | 22.3 µM (inactive) | 33.7 µM (inactive) | 33.5 µM (inactive) | 40.6 µM (inactive) | 45.1 µM (inactive) | 22.2 µM (inactive) | 16.9 µM (inactive) |  | 
16 | N=S(c1ccccc1[N+](=O)[O-])c1ccccc1[N+](=O)[O-] | 5.26 µM (inactive) | 2.08 µM (inactive) | 3.65 µM (inactive) | 0.553 µM (active) | 3.7 µM (inactive) | 7.73 µM (inactive) | 4.34 µM (inactive) | 1.95 µM (inactive) | 3.26 µM (inactive) | 6.08 µM (inactive) | 2.34 µM (inactive) | 4.06 µM (inactive) | 6.34 µM (inactive) | 1.77 µM (inactive) | 5.32 µM (inactive) | 2.37 µM (inactive) |  | 4.84 µM (inactive) |  | 
